Assay results reported in patent US20160106814A1, “Novel Oral Pharmaceutical Composition for Treatment of Diabetes” (NOVO NORDISK A/S, priority 2013, published 2016).
*1 amine or outer side, *2 acyl side, *3 side chain or, on linkers, in order; H or OH if unused. Bridges are numbered along the chain shown (N, C = ends). Roman numbers before positions name the chains, in order. Side-chain parts run from the residue outwards. The star is where a group is joined. C18 diacid = O=C(O)CCCCCCCCCCCCCCCCC(=O)*; NMe2Phe = CN(C)[C@@H](Cc1ccccc1)C(=O)*; γGlu = O=C(O)[C@H](CCC(=O)[*:2])N[*:1]; AEEA = NCCOCCOCC(=O)O; Me2Gly = CN(C)CC(=O)*

Columns and labels:
[1] = Transport of GLP-1 peptide across mucus-producing E12 cell monolayers in the presence of sodium caprate and BBI; type: in vitro ADME; settings: human
Experimental: Buffer was then removed and the experiment initiated. […] Receiver samples (200 μl) were taken every 15 min.
In all samples with GLP-1 peptide and mannitol, the concentration of GLP-1 peptide was determined using a LOCI assay (or LC-MS assay) and scintillation counter, respectively.

[2] = GLP-1 peptide degradation by GI extracts in presence of BBI; type: in vitro ADME, Sprague Dawley rats; settings: half-life with 0.1% BBI divided by half-life without BBI, rat GI juice
Experimental: 96 well plates were coated by incubating with 0.4% BSA solution for a minimum of 60 min. To each well, 210 μl of buffer (HBSS-HEPES buffer with 0.005% Tween 20 and 0.005% BSA, pH 6.5), 30 μl of a substrate (100 μM GLP-1 peptide in buffer) and 30 μl of BBI (1%) were added. The plates were pre-incubated (before adding GI juice) for 60 min at 37° C. After addition of 30 μl of GI juice, the plates were incubated for 60 min/37° C. on shaker. Samples (40 μl) were taken at 0, 3, 6, 10, 30 and 60 min, stopped with 3 vol. cold 96% EtOH w. 1% HCOOH and centrifuged (4500 rcf for 10 min at 4° C.). The resulting supernatant from the samples were diluted 5 times with the buffer prior to LC-MS analysis. Standard samples (0.1, 0.5, 1.0, 5.0, 10.0 μM) were prepared and treated as the samples. Standard curve was analysed both at the beginning and the end of the sequence. Two replicates of each tested conditions were included. Intact GLP-1 peptide was determined in each sample. The results were plotted against the incubation time. Half-lives of the GLP-1 peptide was determined by nonlinear regression of the results using, for example Graph Pad Prism. The half-lives were expressed relative to the half-life of the GLP-1 peptide without BBI present by dividing the half-lives obtained in the presence of inhibitor with those obtained in the absence of BBI. […]

[3] = Insulin peptide degradation by GI extracts in presence of BBI; type: in vitro ADME, Sprague Dawley rats; settings: rat; for half-life at 10 µM: male, Sprague Dawley, real gastrointestinal fluid or homogenate
Experimental: 96 well plates were coated by incubating with 0.4% BSA solution for minimum of 60 min. […] The plates were pre-incubated (before adding GI juice) for 60 min at 37° C. After addition of 30 μl of GI juice, the plates were incubated for 60 min/37° C. on shaker. Samples (40 μl) were taken at 0, 3, 6, 10, 30 and 60 min, stopped with 3 vol. cold 96% EtOH (ethanol) w. 1% HCOOH (formic acid) and centrifuged (4500 rcf for 10 min at 4° C.). The resulting supernatant from the samples were diluted 5 times with the buffer prior to LC-MS analysis. Standard samples (0.1, 0.5, 1.0, 5.0, 10.0 μM) were prepared and treated as the samples. Standard curve was analysed both at the beginning and the end of the sequence. Two replicates of each tested conditions were included. […] The results were plotted against the incubation time. […] GI juice was prepared from male Sprague Dawley rats (200-250 g) by excising approximately 20 cm piece of mid jejunum and rinsing the inside with 2.5 ml 0.9% sodium chloride solution. The sodium chloride solution was collected in a centrifuge tube, pooled from all rats (20) and centrifuged at 4500 rpm./10 min/4° C. The supernatant was aliquoted in tubes and stored at −80° C.

half-life at 10 µM ([3]; pH 6.5, Half Life of insulin peptide) [min]	half-life at 10 µM ([3]; pH 6.5, Half Life of insulin peptide in presence of 0.1% BBI) [min]	Half Life (fold increase) [3] [fold]	Compound	Papp A→B at 100 µM ([1]; pH 7.4, apical to basolateral, 100 μM GLP-1 peptide + 13 mM sodium caprate, without BBI) [×10⁻⁶ cm/s]	Papp A→B at 100 µM ([1]; pH 7.4, with Bowman Birk inhibitor (BBI) 0.2%, apical to basolateral, 100 μM GLP-1 peptide + 13 mM sodium caprate + 0.2% BBI) [×10⁻⁶ cm/s]	Half Life (fold increase) [2] [fold]
–	–	–	CC[C@H](C)[C@H](NC(=O)[C@H](Cc1ccccc1)NC(=O)[C@H](CCC(=O)O)NC(=O)[C@H](CCCCNC(=O)COCCOCCNC(=O)COCCOCCNC(=O)CC[C@H](NC(=O)CCCCCCCCCCCCCCCCC(=O)O)C(=O)O)NC(=O)[C@H](C)NC(=O)[C@H](C)NC(=O)[C@H](CCC(N)=O)NC(=O)CNC(=O)[C@H](CCC(=O)O)NC(=O)[C@H](CC(C)C)NC(=O)[C@H](Cc1ccc(O)cc1)NC(=O)[C@H](CO)NC(=O)[C@H](CO)NC(=O)[C@@H](NC(=O)[C@H](CC(=O)O)NC(=O)[C@H](CO)NC(=O)[C@@H](NC(=O)[C@H](Cc1ccccc1)NC(=O)[C@@H](NC(=O)CNC(=O)[C@H](CCC(=O)O)NC(=O)C(C)(C)NC(=O)[C@@H](N)Cc1cnc[nH]1)[C@@H](C)O)[C@@H](C)O)C(C)C)C(=O)N[C@@H](C)C(=O)N[C@@H](Cc1c[nH]c2ccccc12)C(=O)N[C@@H](CC(C)C)C(=O)N[C@H](C(=O)N[C@@H](CCCNC(=N)N)C(=O)NCC(=O)N[C@@H](CCCNC(=N)N)C(=O)NCC(=O)O)C(C)C [GLP-1 peptide 1, N{Epsilon-26}-[2-[2-[2-[[2-[2-[2-[[(4S)-4-carboxy-4-(17-carboxy-heptadecanoylamino)butanoyl]amino]ethoxy]ethoxy]acetyl]amino]ethoxy]ethoxy]acetyl]-[Aib8,Arg34]-GLP-1-(7-37)-peptide]	0.148	0.319	>15
1.1	> 1000	>910	I: NMe2Phe-VNQHLCGSHLVEALYLVCGERGFHYTPK([AEEA-AEEA-γGlu-C18 diacid])-OH / II: Me2Gly-IVEQCCTSICSLEQLENYCN-OH (disulfide I:6-II:6, I:18-II:19, II:5-II:10) [Insulin 2, N{A1},N{A1}-dimethyl,N{B1},N{B1}-dimethyl,N{Epsilon-B29}-[2-[2-[2-[[2-[2-[2-[[(4S)-4-carboxy-4-(17-carboxyheptadecanoylamino)butanoyl]amino]ethoxy]ethoxy]acetyl]amino]-ethoxy]ethoxy]acetyl]-[GluA14,HisB25],des-ThrB30-Insulin(human)]	–	–	–
